Test results: PubChem BioAssay (NCI)
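Five compound concentrations were applied to cells in 96-well plates for 48 hours; endpoints were derived by simple linear interpolation of the resulting dose-response curve. TGI: total growth inhibition.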

Tests used:
Assay in all cases: growth of human tumour cells (NCI), 48 h
HCT-15 colon = system: HCT-15 colon
U251 CNS = system: U251 CNS
UACC-257 melanoma = system: UACC-257 melanoma
BT-549 breast = system: BT-549 breast
ACHN renal = system: ACHN renal
MDA-MB-231 breast = system: MDA-MB-231 breast
NCI-H226 lung = system: NCI-H226 lung
KM12 colon = system: KM12 colon
NCI-H460 lung = system: NCI-H460 lung
CAKI-1 renal = system: CAKI-1 renal
A549 NSCLC = system: A549 NSCLC
HOP-62 NSCLC = system: HOP-62 NSCLC
K-562 leukemia = system: K-562 leukemia
OVCAR-5 ovarian = system: OVCAR-5 ovarian
UACC-62 melanoma = system: UACC-62 melanoma
SK-MEL-5 melanoma = system: SK-MEL-5 melanoma
SR leukemia = system: SR leukemia
SNB-75 CNS = system: SNB-75 CNS
M14 melanoma = system: M14 melanoma
NCI/ADR-RES ovarian = system: NCI/ADR-RES ovarian
MOLT-4 leukemia = system: MOLT-4 leukemia
COLO 205 colon = system: COLO 205 colon
SW-620 colon = system: SW-620 colon
MDA-MB-435 = system: MDA-MB-435
786-0 renal = system: 786-0 renal
SN12C renal = system: SN12C renal
HCC-2998 colon = system: HCC-2998 colon
T-47D breast = system: T-47D breast
A498 renal = system: A498 renal
TK-10 renal = system: TK-10 renal
SF-295 CNS = system: SF-295 CNS
SK-OV-3 ovarian = system: SK-OV-3 ovarian
OVCAR-4 ovarian = system: OVCAR-4 ovarian
OVCAR-3 ovarian = system: OVCAR-3 ovarian
IGROV1 ovarian = system: IGROV1 ovarian
OVCAR-8 ovarian = system: OVCAR-8 ovarian
HOP-92 NSCLC = system: HOP-92 NSCLC
HCT-116 colon = system: HCT-116 colon
SF-539 CNS = system: SF-539 CNS
SK-MEL-28 melanoma = system: SK-MEL-28 melanoma
SK-MEL-2 melanoma = system: SK-MEL-2 melanoma
PC-3 prostate = system: PC-3 prostate
MCF7 breast = system: MCF7 breast
SNB-19 CNS = system: SNB-19 CNS
HT29 colon = system: HT29 colon
RPMI-8226 leukemia = system: RPMI-8226 leukemia
UO-31 renal = system: UO-31 renal
NCI-H522 lung = system: NCI-H522 lung
DU-145 prostate = system: DU-145 prostate
EKVX NSCLC = system: EKVX NSCLC
HS 578T breast = system: HS 578T breast
LOX IMVI melanoma = system: LOX IMVI melanoma
HL-60(TB) leukemia = system: HL-60(TB) leukemia
SF-268 CNS = system: SF-268 CNS
NCI-H23 lung = system: NCI-H23 lung
MALME-3M melanoma = system: MALME-3M melanoma
CCRF-CEM leukemia = system: CCRF-CEM leukemia

Measured: TGI

COC(=O)CN(CC1O[C@@H]2OC(C)(C)O[C@@H]2C1N=[N+]=[N-])C(=O)OCc1ccccc1 (some centres undefined)
not listed: NCI-H23 lung | MALME-3M melanoma | CCRF-CEM leukemia
> 100 µM: all other assays above

CC(=O)OC1C2CCC1C1C2N=NN1c1ccc([N+](=O)[O-])cc1 (centres undefined)
not listed: CAKI-1 renal | K-562 leukemia
> 100 µM: all other assays above
